# Article PMC10974743, “Design, Synthesis, and Biological Evaluation of Novel Phenoxy Acetic Acid Derivatives as Selective COX-2 Inhibitors Coupled with Comprehensive Bio-Pharmacological Inquiry, Histopathological Profiling, and Toxicological Scrutiny” (Molecules, 2024)
# Entries after “also recorded” stand apart in the source; their conditions may differ. Marks after values point to notes of the source that are not given here.
# What was measured:
# [1] = system: carrageenan-induced paw edema; experiment: Carrageenan paw edema test (paw thickness, paw weight); settings: for Paw thickness difference: oral; for Percentage of inhibition of paw thickness: vs carrageenan group
# Procedure: The carrageenan paw edema test was conducted following established procedures as detailed (Supplementary Materials, page 53).
# The carrageenan paw edema test was conducted following established procedures. In summary, seventy-two rats were randomly assigned to twelve groups, each comprising six rats.
# These groups included normal controls, carrageenan controls (both receiving the vehicle; 1%
# Acute inflammation was induced in the right hind paws of all rats one hour after oral administration of the respective compounds or vehicle. This was achieved by injecting a freshly prepared 0.1 mL carrageenan suspension (1% in normal saline) subplantarly into the right hind paw, except for the normal control group, which received a saline injection. Paw thickness was measured hourly (Ct) until the fifth hour (C5) post-carrageenan injection (C0). The hourly increase in paw thickness (paw thickness difference) was calculated by subtracting the initial measurement (C0) from the thickness at each hour (Ct), and the results were presented as the mean increase in paw thickness (mm). To evaluate anti-inflammatory effects, the percentage of inhibition for each standard and test compound was determined using the formula: percentage of inhibition (%) = [(Paw thickness difference of carrageenan group - Paw thickness difference of treated)/ Paw thickness difference of carrageenan group] × 100. […] The paws were then excised and weighed (both left and right). The percentage of weight increase between the left and right paws of each animal was calculated using the equation: Percentage of weight increase = [(Weight of the right paw - Weight of the left paw) / Weight of the left paw] ×100.
# [2] = target: T1, human COX-2 (Homo sapiens, UniProt P35354); experiment: In vitro COX-2 inhibition assay (Cayman colorimetric COX inhibitor screening kit)
# T1 sequence (P35354 18-604): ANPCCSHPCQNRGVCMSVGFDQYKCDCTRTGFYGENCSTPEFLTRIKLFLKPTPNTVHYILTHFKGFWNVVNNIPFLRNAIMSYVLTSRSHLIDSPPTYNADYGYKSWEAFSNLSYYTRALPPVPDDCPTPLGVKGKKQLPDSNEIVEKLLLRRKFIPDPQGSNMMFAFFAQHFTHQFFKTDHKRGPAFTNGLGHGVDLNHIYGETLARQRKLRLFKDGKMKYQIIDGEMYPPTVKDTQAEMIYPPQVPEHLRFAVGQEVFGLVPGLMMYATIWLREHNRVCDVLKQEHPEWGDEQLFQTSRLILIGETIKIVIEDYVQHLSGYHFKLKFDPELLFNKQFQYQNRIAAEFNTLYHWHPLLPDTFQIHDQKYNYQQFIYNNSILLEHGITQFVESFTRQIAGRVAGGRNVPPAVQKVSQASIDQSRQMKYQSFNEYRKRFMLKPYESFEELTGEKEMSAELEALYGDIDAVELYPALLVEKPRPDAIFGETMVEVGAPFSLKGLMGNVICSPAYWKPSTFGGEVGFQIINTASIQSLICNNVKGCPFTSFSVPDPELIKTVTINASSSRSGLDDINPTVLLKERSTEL
# Procedure: (§7) The in vitro enzyme assays were performed at the Biochemistry Department, Cairo
# (§8) General Hospital, Egypt. Cayman® colorimetric COX (ovine) inhibitor screening assay kit (Item
# (§9) enzymes in presence of all newly compounds. Generally, this kit is dependent on the reductive
# (§10) reaction of COX. A specific antibody binds to PGH2 produced by COX and is further quantified
# (§11) by the ELISA technique as previously reported. After that, the selectivity index (SI) was calculated
# as the following equation:
# 𝐒𝐞𝐥𝐞𝐜𝐭𝐢𝐯𝐢𝐭𝐲 𝐢𝐧𝐝𝐞𝐱 (𝐒𝐈) = 𝐈𝐂₅₀𝐨𝐟 𝐂𝐎𝐗 − 𝟏
# [3] = system: COX-2; settings: cited from earlier work
# [4] = system: nociceptive responses on hot plate; experiment: Hot plate latency test (analgesic activity); type: in vivo, rats; settings: for Hot plate latency period: plate 50 °C, mean ± SD, n = 6
# Procedure: The hot plate latency test was performed according to the following procedures (Supplementary Materials, page 54). […]
# In summary, thirty rats
# The normal control group received 1% CMC, while the remaining groups were administered their respective reference or test compounds. Each rat was gently positioned on a heated plate set at 50 ◦C. The latency period for nociceptive responses, such as paw licking or jumping off the hot plate, was recorded at 30-, 60-, 90-, and 120 minutes post-administration of the reference drugs, test […]
# [5] = system: PGE2; experiment: PGE2 content of paw exudate by ELISA, carrageenan paw edema model; type: in vivo, Sprague Dawley rats; settings: vs carrageenan group
# Procedure: (§1) ELISA assessment assays were conducted as cited (Supplementary Materials, page 53).
# (§2) In-vivo anti-inflammatory activity […]
# (§3) cervical dislocation. […] The percentage
# (§4) Weight of the left paw] ×100.
# (§5) Assessment of inflammatory biomarkers using ELISA […]
# (§6) content, using enzyme -linked immunosorbent assay (ELISA). The ELISA kits were purchased from CLOUD -CLONE CORP (CCC, USA) (Cat# SEA133Ra) and MyBioSource company (British Columbia, Canada) (Cat# MBS730592) respectively, and the assays were performed following the manufacturer' s instructions. Additionally, the protein content of the exudates was determined using the Bradford method.
# [6] = Assessment of liver and kidney function (serum ALT, AST, creatinine, urea); type: in vivo, rats; set-up: Urea: unit not given here; settings: mean ± SD
# Procedure: These assessments were conducted following the manufacturer’s instructions (Supplementary Materials, page 55).
# In-vivo anti-inflammatory activity
# as §3, §4
# Assessment of inflammatory biomarkers using ELISA
# [7] = target: T2, ovine COX-1 (Ovis aries, UniProt P05979); experiment: In vitro COX-1 inhibition assay (Cayman colorimetric COX inhibitor screening kit)
# T2 sequence (P05979 25-600): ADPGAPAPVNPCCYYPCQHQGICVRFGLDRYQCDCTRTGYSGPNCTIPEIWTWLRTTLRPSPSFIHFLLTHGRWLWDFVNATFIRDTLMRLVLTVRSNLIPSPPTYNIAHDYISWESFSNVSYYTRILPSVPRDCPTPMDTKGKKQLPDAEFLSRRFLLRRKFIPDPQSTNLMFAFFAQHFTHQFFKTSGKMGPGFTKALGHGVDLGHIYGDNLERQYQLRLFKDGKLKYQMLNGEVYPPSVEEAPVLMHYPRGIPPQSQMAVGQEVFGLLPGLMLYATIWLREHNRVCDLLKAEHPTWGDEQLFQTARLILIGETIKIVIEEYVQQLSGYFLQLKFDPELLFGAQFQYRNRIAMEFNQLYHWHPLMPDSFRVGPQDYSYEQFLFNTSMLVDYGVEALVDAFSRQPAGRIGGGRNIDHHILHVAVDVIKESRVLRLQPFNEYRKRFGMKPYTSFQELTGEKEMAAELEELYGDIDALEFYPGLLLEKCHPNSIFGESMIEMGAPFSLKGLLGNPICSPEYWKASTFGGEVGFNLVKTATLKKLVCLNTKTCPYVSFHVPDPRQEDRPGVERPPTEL
# Procedure: as §7, §8, §9, §10, §11
# as the following equation:
# 𝐒𝐞𝐥𝐞𝐜𝐭𝐢𝐯𝐢𝐭𝐲 𝐢𝐧𝐝𝐞𝐱 (𝐒𝐈) = 𝐈𝐂₅₀𝐨𝐟 𝐂𝐎𝐗 − 𝟏
# [8] = system: paw tissue, carrageenan paw edema model; experiment: Histopathological examination of paws, inflammatory cell infiltration score; type: in vivo, rats
# Procedure: The histopathological assessments were performed according to the following procedures (Supplementary Materials, page 54). […]
# Histopathological examination
# Thirty-six rats were separated into six groups of six rats each for histological assessment […]
# groupings consisted of a control group, a carrageenan group, two groups for the reference drugs […]
# protocols that were utilized in the in-vivo anti-inflammatory activity test were used. After a duration of 5 hours, the animals were euthanized, and their left paws were amputated. The paws were preserved in 10% neutral buffered formalin, trimmed, washed, dehydrated in increasing concentrations of ethyl alcohol, clarified in xylene, and ultimately embedded in paraffin. They were then sliced into 4-6µ thick slices, stained with Hematoxylin and Eosin, and examined under a light microscope. A scoring system was used to evaluate the degree of inflammation, dividing it into six categories ranging from 0 indicating no inflammation to 5 indicating severe inflammation.
# Each score corresponded to a certain level of inflammation: 0 for no inflammation, 1 for mild inflammation, 2 for mild to moderate inflammation, 3 for moderate inflammation, 4 for moderate to severe inflammation, and 5 for severe inflammation.
# [9] = system: gastric mucosa; experiment: Evaluation of ulcerogenic effects (macroscopic scores and gastric histopathology)
# Procedure: The assessment of ulcerogenic effects was conducted following established procedures [42, 57]
# Following the experimental period, the animals were euthanized using pentobarbital sodium (100 mg/kg), and blood was collected via jugular vein exsanguination for later evaluation of liver and kidney function, and subsequently sacrificed by cervical dislocation. […] Following this, the animals' stomachs were removed, inflated, and opened along the greater curvature to evaluate ulcerogenic effects.
# B: Ulcer lesion severity scoring system
# 2.5 More than 10 small ulcers
# 3 1 marked ulcer plus 0 to 4 small ulcers
# 3.5 1 marked ulcer plus 5 or more small ulcers
# 4 2 marked ulcers plus 0 to 4 small ulcers
# 4.5 2 marked ulcers plus 5 or more small ulcers
# 5 3 or more marked ulcers
# The statistical analysis of the data was conducted using GraphPad Prism 9.5.1 Demo
# (GraphPad Software, San Diego, CA). One -way analysis of variance (ANOVA) was utilized to
# evaluate differences among the various groups, except for paw edema volume, which un derwent
# analysis using two -way ANOVA. Post -hoc analysis was performed using Tukey's multiple
# significance set at P < 0.05
# [10] = system: TNF-α; experiment: TNF-α content of paw exudate by ELISA, carrageenan paw edema model; type: in vivo, Sprague Dawley rats; settings: vs carrageenan group
# Procedure: as §1, §2, §3, §4, §5, §6
# [11] = compared to the normal control group
compound,measurement,setting,value
"Cc1cccc(Nc2ccccc2C(=O)O)c1C [Mefenamic acid, mefenamic acid, reference compound]",Paw thickness difference,"[1]; 1st h after carrageenan, mean ± SD, n = 6",1.22 ± 0.19 mm
same,Percentage of inhibition of paw thickness,[1]; 1st h,38.43%
same,Paw thickness difference,"[1]; 2nd h after carrageenan, mean ± SD, n = 6",2.27 ± 0.11 mm
same,Percentage of inhibition of paw thickness,[1]; 2nd h,31.22%
same,Paw thickness difference,"[1]; 3rd h after carrageenan, mean ± SD, n = 6",2.86 ± 0.11 mm
same,Percentage of inhibition of paw thickness,[1]; 3rd h,32.37%
same,Paw thickness difference,"[1]; 4th h after carrageenan, mean ± SD, n = 6",3.22 ± 0.19 mm
same,Percentage of inhibition of paw thickness,[1]; 4th h,36.16%
same,Paw thickness difference,"[1]; 5th h after carrageenan, mean ± SD, n = 6",3.51 ± 0.07 mm
same,Percentage of inhibition of paw thickness,[1]; 5th h,33.89%
same,Paw Weight Increase,"[1]; right vs left paw, after 5 h, mean ± SD, n = 6",34.08 ± 2.27 ^ab %
same,SI (COX-2 selectivity index),[2]; COX-1 (IC50)/COX-2 (IC50),15.10
same,IC50,"[2]; COX-2 IC50, mean ± SEM, n = 3",1.98 ± 0.02 µM
same,IC50,[3],5.3 µM
same,Hot plate latency period,[4]; 30 min post-administration,9.95 ± 0.35 ^ab
same,Increase in latency period,[4]; 60 min mark,58.38%
same,Hot plate latency period,[4]; 60 min post-administration,11.58 ± 0.25 ^ab
same,Hot plate latency period,[4]; 90 min post-administration,12.83 ± 0.36 ^ab
same,Hot plate latency period,[4]; 120 min post-administration,13.73 ± 0.42 ^a
same,Reduction of PGE2 exudate content,[5],59.37%
same,ALT,[6]; n = 6,88.84 ± 6.09 IU/L
same,AST,[6]; n = 6,97.51 ± 8.08 IU/L
same,AST/ALT,[6]; n = 6,1.10 ± 0.15
same,Urea,[6]; n = 6,27.58 ± 2.08
same,Creatinine,"[6]; n = 6, in mg/dL (unit assumed)",0.72 ± 0.05
same,IC50,[7],29.9 ± 0.09 µM
same,Paw histopathological finding,"[8]; H&E staining, carrageenan paw edema",infiltration of dermis by high number of inflammatory cells mainly lymphocytes and eosinophils; also recorded: significant cutaneous infiltration by inflammatory cells
same,Reduction in inflammatory cell infiltration score,"[8]; vs carrageenan group, paw, 5 hours",37.04%
same,Gastric mucosa histopathological finding,[9]; H&E staining,ulcer formation with desquamation of gastric mucosal epithelium; also recorded: ulcer development and desquamation of the stomach mucosal epithelium
same,Increase in ulcer number,[9]; [11],233.33%
same,Increase in ulcer severity score,[9]; [11],366.67%
same,Ulcer Number Score,"[9]; mean ± SD, n = 6",1.67 ± 0.82 ^a
same,Ulcer Severity Score,"[9]; mean ± SD, n = 6, scale 0 to 5",1.17 ± 0.61 ^a
same,Reduction of TNF-α exudate content,[10],60.09%
